Reference: ChEMBL document CHEMBL1201861, “Genomics of Drug Sensitity in Cancer screening data, Wellcome Trust Sanger Institute”
Values joined by “and” are separate entries in the source; they are usually repeats but may differ in a detail not shown here. Equal entries are not always repeated. Where a SMILES comes first, the peptide text is derived from it. The star is where a group is joined. Cbz = O=C(OCc1ccccc1)*

Key:
Assay in all cases: cells
COLO-829 = type: functional, cell-based, Homo sapiens
Description: SANGER: Inhibition of human COLO-829 cell growth in a cell viability assay.

COR-L88 = type: functional, cell-based, Homo sapiens;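 note: growth inhibition of COR-L88 cells, read out with a cell viability assay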
Description: SANGER: Inhibition of human COR-L88 cell growth in a cell viability assay.

D-502MG = type: functional, cell-based, Homo sapiens
Description: SANGER: Inhibition of human D-502MG cell growth in a cell viability assay.

DB = type: functional, cell-based, Homo sapiens
Description: SANGER: Inhibition of human DB cell growth in a cell viability assay.

DJM-1 = type: functional, cell-based, Homo sapiens;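 note: growth inhibition of human DJM-1 cells, read out by a cell viability assay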
Description: SANGER: Inhibition of human DJM-1 cell growth in a cell viability assay.

DMS-114 = type: functional, cell-based, Homo sapiens
ETK-1 = type: functional, cell-based, Homo sapiens;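 note: growth inhibition of human ETK-1 cells, read out with a cell viability assay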
Description: SANGER: Inhibition of human ETK-1 cell growth in a cell viability assay.

EW-13 = type: functional, cell-based, Homo sapiens; settings: read-out: IC50;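 note: growth inhibition of EW-13 cells, read out with a cell viability assay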
Description: SANGER: Inhibition of human EW-13 cell growth in a cell viability assay.

EW-3 = type: functional, cell-based, Homo sapiens;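 note: cell viability assay read-out, IC50 reflects inhibition of growth of the EW-3 cells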
Description: SANGER: Inhibition of human EW-3 cell growth in a cell viability assay.

GI-1 = type: functional, cell-based, Homo sapiens;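 note: growth inhibition of human GI-1 cells, measured with a cell viability readout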
Description: SANGER: Inhibition of human GI-1 cell growth in a cell viability assay.

HAL-01 = type: functional, cell-based, Homo sapiens;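 note: growth inhibition of human HAL-01 cells, read out with a cell viability assay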
Description: SANGER: Inhibition of human HAL-01 cell growth in a cell viability assay.

HCC2218 = type: functional, cell-based, Homo sapiens;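 note: cell viability assay read-out, with IC50 given as the concentration that inhibits growth of the cell line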
Description: SANGER: Inhibition of human HCC2218 cell growth in a cell viability assay.

HT = type: functional, cell-based, Homo sapiens
Description: SANGER: Inhibition of human HT cell growth in a cell viability assay.

IST-SL1 = type: functional, cell-based, Homo sapiens;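 note: growth inhibition of human IST-SL1 cells, read out with a cell viability assay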
Description: SANGER: Inhibition of human IST-SL1 cell growth in a cell viability assay.

J-RT3-T3-5 = type: functional, cell-based, Homo sapiens;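 note: cell viability assay measuring growth inhibition of human J-RT3-T3-5 cells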
Description: SANGER: Inhibition of human J-RT3-T3-5 cell growth in a cell viability assay.

JAR = type: functional, cell-based, Homo sapiens;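 note: growth inhibition of human JAR cells determined with a cell viability assay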
Description: SANGER: Inhibition of human JAR cell growth in a cell viability assay.

KE-37 = type: functional, cell-based, Homo sapiens;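 note: growth inhibition of KE-37 cells, read out with a cell viability assay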
Description: SANGER: Inhibition of human KE-37 cell growth in a cell viability assay.

KP-N-YS = type: functional, cell-based, Homo sapiens;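 note: cell viability assay measuring inhibition of cell line growth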
Description: SANGER: Inhibition of human KP-N-YS cell growth in a cell viability assay.

KU812 cell line = type: functional, cell-based, Homo sapiens;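 note: growth inhibition of KU812 cells, read out with a cell viability assay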
Description: SANGER: Inhibition of human KU812 cell growth in a cell viability assay.

L-363 = type: functional, cell-based, Homo sapiens
Description: SANGER: Inhibition of human L-363 cell growth in a cell viability assay.

LAN-6 = type: functional, cell-based, Homo sapiens;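 note: growth inhibition of LAN-6 cells, determined with a cell viability assay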
Description: SANGER: Inhibition of human LAN-6 cell growth in a cell viability assay.

LB771-HNC = type: functional, cell-based; settings: Homo sapiens;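 note: growth inhibition of LB771-HNC human cells, read out with a cell viability assay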
Description: SANGER: Inhibition of human LB771-HNC cell growth in a cell viability assay.

LOX IMVI = type: functional, cell-based, Homo sapiens
Description: SANGER: Inhibition of human LOXIMVI cell growth in a cell viability assay.

MEG-01 = type: functional, cell-based, Homo sapiens;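 note: growth inhibition of MEG-01 cells, read out by a cell viability assay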
Description: SANGER: Inhibition of human MEG-01 cell growth in a cell viability assay.

MFM-223 = type: functional, cell-based, Homo sapiens
Description: SANGER: Inhibition of human MFM-223 cell growth in a cell viability assay.

ML-2 = type: functional, cell-based, Homo sapiens;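 note: growth inhibition of ML-2 cells, measured with a cell viability readout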
Description: SANGER: Inhibition of human ML-2 cell growth in a cell viability assay.

MOLT-16 = type: functional, cell-based, Homo sapiens;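 note: growth inhibition of human MOLT-16 cells, read out with a cell viability assay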
Description: SANGER: Inhibition of human MOLT-16 cell growth in a cell viability assay.

MV4-11 = type: functional, cell-based, Homo sapiens, MV-4-11;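 note: cell viability readout measuring growth inhibition of human MV-4-11 cells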
Description: SANGER: Inhibition of human MV-4-11 cell growth in a cell viability assay.

MZ2-MEL = type: functional, cell-based, Homo sapiens;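 note: growth inhibition of MZ2-MEL cells read out with a cell viability assay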
Description: SANGER: Inhibition of human MZ2-MEL cell growth in a cell viability assay.

NCI-H1395 = type: functional, cell-based, Homo sapiens;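 note: cell viability assay read-out quantifying reduced proliferation of human NCI-H1395 cells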
Description: SANGER: Inhibition of human NCI-H1395 cell growth in a cell viability assay.

NCI-H720 = type: functional, cell-based, Homo sapiens;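 note: growth inhibition of human NCI-H720 cells determined by a cell viability assay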
Description: SANGER: Inhibition of human NCI-H720 cell growth in a cell viability assay.

SNU1 = type: functional, cell-based, Homo sapiens;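 note: growth inhibition of human NCI-SNU-1 cells, measured with a cell viability assay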
Description: SANGER: Inhibition of human NCI-SNU-1 cell growth in a cell viability assay.

NKM-1 = type: functional, cell-based, Homo sapiens;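 note: growth inhibition of NKM-1 cells, read out with a cell viability assay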
Description: SANGER: Inhibition of human NKM-1 cell growth in a cell viability assay.

OCI-AML2 = type: functional, cell-based, Homo sapiens;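 note: growth inhibition of OCI-AML2 cells, read out with a cell viability assay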
Description: SANGER: Inhibition of human OCI-AML2 cell growth in a cell viability assay.

OMC-1 = type: functional, cell-based, Homo sapiens;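 note: growth inhibition of the OMC-1 cell line, measured by a cell viability assay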
Description: SANGER: Inhibition of human OMC-1 cell growth in a cell viability assay.

RCC10RGB = type: functional, cell-based, Homo sapiens;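 note: growth inhibition of human RCC10RGB cells, read out by a cell viability assay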
Description: SANGER: Inhibition of human RCC10RGB cell growth in a cell viability assay.

SCC-15 = type: functional, cell-based, Homo sapiens;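 note: growth inhibition of SCC-15 cells, read out with a cell viability assay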
Description: SANGER: Inhibition of human SCC-15 cell growth in a cell viability assay.

SK-NEP-1 = type: functional, cell-based, Homo sapiens;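 note: growth inhibition of human SK-NEP-1 cells, read out by a cell viability assay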
Description: SANGER: Inhibition of human SK-NEP-1 cell growth in a cell viability assay.

SK-UT-1 = type: functional, cell-based, Homo sapiens;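 note: growth inhibition of SK-UT-1 cells, measured by a cell viability assay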
Description: SANGER: Inhibition of human SK-UT-1 cell growth in a cell viability assay.

SW872 = type: functional, cell-based, Homo sapiens;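 note: growth inhibition of SW872 cells, read out by a viability assay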
Description: SANGER: Inhibition of human SW872 cell growth in a cell viability assay.

TE-1 = type: functional, cell-based, Homo sapiens;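 note: growth inhibition of the human TE-1 cell line, read out with a cell viability assay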
Description: SANGER: Inhibition of human TE-1 cell growth in a cell viability assay.

A704 = type: functional, cell-based; settings: Homo sapiens;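 note: growth inhibition of human A704 cells, read out with a cell viability assay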
Description: SANGER: Inhibition of human A704 cell growth in a cell viability assay.

BB65-RCC = type: functional, cell-based, Homo sapiens;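 note: growth inhibition of the cell line, measured with a cell viability assay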
Description: SANGER: Inhibition of human BB65-RCC cell growth in a cell viability assay.

BE-13 = type: functional, cell-based, Homo sapiens;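 note: growth inhibition of human BE-13 cells, measured with a cell viability assay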
Description: SANGER: Inhibition of human BE-13 cell growth in a cell viability assay.

BT-474 = type: functional, cell-based, Homo sapiens
Description: SANGER: Inhibition of human BT-474 cell growth in a cell viability assay.

BV-173 = type: functional, cell-based, Homo sapiens
Description: SANGER: Inhibition of human BV-173 cell growth in a cell viability assay.

TE-6 = type: functional, cell-based, Homo sapiens;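 note: growth inhibition of TE-6 cells, read out with a cell viability assay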
Description: SANGER: Inhibition of human TE-6 cell growth in a cell viability assay.

U-87 MG = type: functional, cell-based, Homo sapiens, U-87MG ATCC;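 note: growth inhibition of the cells measured with a viability assay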
Description: SANGER: Inhibition of human U-87-MG cell growth in a cell viability assay.

no-11 = type: functional, cell-based, Homo sapiens;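 note: growth inhibition of human NO-11 cells, read out with a cell viability assay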
Description: SANGER: Inhibition of human no-11 cell growth in a cell viability assay.

Measured: IC50

O=S(=O)(O)c1ccc2cc(/N=N/c3cc(S(=O)(=O)O)c4cccnc4c3O)ccc2c1
> 16000 nM: COLO-829; Homo sapiens, COLO-829 | ETK-1; Homo sapiens, ETK-1 | HAL-01; Homo sapiens, HAL-01 | HCC2218; Homo sapiens, HCC2218 | IST-SL1; Homo sapiens, IST-SL1 | KE-37; Homo sapiens, KE-37 | KU812 cell line; Homo sapiens, KU812 | LAN-6; Homo sapiens, LAN-6 | ML-2; Homo sapiens, ML-2 | MOLT-16; Homo sapiens, MOLT-16 | MZ2-MEL; Homo sapiens, MZ2-MEL | NCI-H1395; Homo sapiens, NCI-H1395 | SNU1; Homo sapiens, SNU1 | NKM-1; Homo sapiens, NKM-1 | RCC10RGB; Homo sapiens, RCC10RGB | SK-UT-1; Homo sapiens, SK-UT-1 | SW872; Homo sapiens, SW872 | TE-1; Homo sapiens, TE-1 | A704 | BB65-RCC; Homo sapiens, BB65-RCC | BE-13; Homo sapiens, BE-13 | BV-173; Homo sapiens, BV-173 | U-87 MG; Homo sapiens, U-87 MG
5.17 µM: EW-13; Homo sapiens, EW-13
> 16 µM: COR-L88; Homo sapiens, COR-L88 | D-502MG; Homo sapiens, D-502MG | DB; Homo sapiens, DB | DJM-1; Homo sapiens, DJM-1 | DMS-114; Homo sapiens, DMS-114 | EW-3; Homo sapiens, EW-3 | GI-1; Homo sapiens, GI-1 | HT; Homo sapiens, HT | J-RT3-T3-5; Homo sapiens, J-RT3-T3-5 | JAR; Homo sapiens, JAR | KP-N-YS; Homo sapiens, KP-N-YS | L-363; Homo sapiens, L-363 | LB771-HNC | LOX IMVI; Homo sapiens, LOX IMVI | MEG-01; Homo sapiens, MEG-01 | MFM-223; Homo sapiens, MFM-223 | MV4-11; Homo sapiens, MV4-11 | NCI-H720; Homo sapiens, NCI-H720 | OCI-AML2; Homo sapiens, OCI-AML2 | OMC-1; Homo sapiens, OMC-1 | SCC-15; Homo sapiens, SCC-15 | SK-NEP-1; Homo sapiens, SK-NEP-1 | BT-474; Homo sapiens, BT-474 | TE-6; Homo sapiens, TE-6 | no-11; Homo sapiens

CC(C)C[C@@H](C=O)NC(=O)[C@H](CC(C)C)NC(=O)[C@H](CC(C)C)NC(=O)OCc1ccccc1 [MG-132] (Cbz-Leu-Leu-Leu-aldehyde)
201 nM and > 1000 nM: IST-SL1; ist-sl1
176 nM and > 1000 nM: MZ2-MEL; mz2-mel
451 nM and > 1000 nM: TE-1; te-1
118 nM and 473 nM: ML-2; ml-2
243 nM and > 1000 nM: COLO-829; colo-829
568 nM and > 1000 nM: BB65-RCC; bb65-rcc
220 nM and > 1000 nM: SK-UT-1; sk-ut-1
487 nM: A704
657 nM and > 1000 nM: SW872; sw872
313 nM and > 1000 nM: LAN-6; lan-6
> 1000 nM and 562 nM: BE-13; be-13
133 nM and 639 nM: KE-37; ke-37
> 1 µM: COR-L88; cor-l88 | D-502MG; d-502mg | DB; db | DJM-1; djm-1 | DMS-114; dms-114 | EW-13; Homo sapiens, EW-13 | EW-13; ew-13 | EW-3; ew-3 | GI-1; gi-1 | HT; ht | J-RT3-T3-5; j-rt3-t3-5 | JAR; jar | KP-N-YS; kp-n-ys | L-363; Homo sapiens, L-363 | L-363; l-363 | LOX IMVI; Homo sapiens, LOX IMVI | LOX IMVI; lox imvi | MEG-01; meg-01 | MFM-223; mfm-223 | MV4-11; mv-4-11 | NCI-H720; nci-h720 | OCI-AML2; oci-aml2 | OMC-1; omc-1 | SCC-15; scc-15 | SK-NEP-1; sk-nep-1 | BT-474; bt-474 | TE-6; te-6 | no-11
295 nM and > 1000 nM: MOLT-16; molt-16
> 1000 nM: ETK-1; Homo sapiens, ETK-1 | ETK-1; etk-1 | HAL-01; hal-01 | HCC2218; Homo sapiens, HCC2218 | HCC2218; hcc2218 | KU812 cell line; Homo sapiens, KU812 | KU812 cell line; ku812 | NCI-H1395; Homo sapiens, NCI-H1395 | NCI-H1395; nci-h1395 | SNU1; snu1 | NKM-1; nkm-1 | RCC10RGB; Homo sapiens, RCC10RGB | RCC10RGB; rcc10rgb | BV-173; bv-173 | U-87 MG; Homo sapiens, U-87 MG | U-87 MG; u-87mg atcc

CN(C)CCOc1ccc(-c2nc(-c3ccncc3)c(-c3ccc4c(c3)CC/C4=N\O)[nH]2)cc1 [SB590885]
4.69 µM: L-363; Homo sapiens, L-363
> 5 µM: COR-L88; Homo sapiens, COR-L88 | D-502MG; Homo sapiens, D-502MG | DB; Homo sapiens, DB | DJM-1; Homo sapiens, DJM-1 | DMS-114; Homo sapiens, DMS-114 | EW-13; Homo sapiens, EW-13 | GI-1; Homo sapiens, GI-1 | HT; Homo sapiens, HT | J-RT3-T3-5; Homo sapiens, J-RT3-T3-5 | JAR; Homo sapiens, JAR | KP-N-YS; Homo sapiens, KP-N-YS | LB771-HNC | MEG-01; Homo sapiens, MEG-01 | MFM-223; Homo sapiens, MFM-223 | MV4-11; Homo sapiens, MV4-11 | NCI-H720; Homo sapiens, NCI-H720 | OCI-AML2; Homo sapiens, OCI-AML2 | OMC-1; Homo sapiens, OMC-1 | SCC-15; Homo sapiens, SCC-15 | SK-NEP-1; Homo sapiens, SK-NEP-1 | BT-474; Homo sapiens, BT-474 | TE-6; Homo sapiens, TE-6 | no-11; Homo sapiens
3.19 µM: LOX IMVI; Homo sapiens, LOX IMVI
967 nM: COLO-829; Homo sapiens, COLO-829
771 nM: BV-173; Homo sapiens, BV-173
2900 nM: SNU1; Homo sapiens, SNU1
1670 nM: NKM-1; Homo sapiens, NKM-1
3.56 µM: EW-3; Homo sapiens, EW-3
2930 nM: HAL-01; Homo sapiens, HAL-01
> 5000 nM: ETK-1; Homo sapiens, ETK-1 | IST-SL1; Homo sapiens, IST-SL1 | KE-37; Homo sapiens, KE-37 | KU812 cell line; Homo sapiens, KU812 | LAN-6; Homo sapiens, LAN-6 | ML-2; Homo sapiens, ML-2 | MOLT-16; Homo sapiens, MOLT-16 | MZ2-MEL; Homo sapiens, MZ2-MEL | NCI-H1395; Homo sapiens, NCI-H1395 | RCC10RGB; Homo sapiens, RCC10RGB | SW872; Homo sapiens, SW872 | TE-1; Homo sapiens, TE-1 | A704 | BB65-RCC; Homo sapiens, BB65-RCC | BE-13; Homo sapiens, BE-13 | U-87 MG; Homo sapiens, U-87 MG
1060 nM: HCC2218; Homo sapiens, HCC2218
